Measured values published in publication PMC9604729, “Unusual Tetrahydropyridoindole-Containing Tetrapeptides with Human Nicotinic Acetylcholine Receptors Targeting Activity Discovered from Antarctica-Derived Psychrophilic Pseudogymnoascus sp. HDN17-933” (Marine Drugs, 2022).
Like-named read-outs stand apart in the source and are kept apart here. Square brackets hold non-standard residues; d marks the D form. Peptide text beside a SMILES is read from it.

Legend:
HL60 cell lines = conditions: cited from earlier work
BEL-7047 cell lines = tested on: BEL-7047 cell lines; parameters: method as in doi:10.1016/j.tet.2008.11.078; conditions: read-out: IC50, cytotoxicity against BEL-7047 cell lines; cited from earlier work
human (h) α7 nAChR = molecular target: T1, human (h) α7 nAChR (Homo sapiens, UniProt P36544); assay: Two-electrode voltage clamp, inhibition of ACh-evoked currents at hα7 nAChR in Xenopus oocytes; type: cell-based; conditions: compound 100 µM; currents activated by 100 μM ACh; ratio ACh + compound to ACh alone; mean ± SD, n = 6–11
T1 construct: Jon Lindstrom (clone); host or cells: Xenopus laevis oocytes, cRNA injected
Experimental: (§1) All procedures were approved by the University of Wollongong Animal Ethics Committees (project number: AE2003). Female Xenopus laevis were sourced from Nasco (Fort Atkinson, WI, USA), and a maximum of four frogs were kept in a 15 L aquarium at 20–26 °C with 12 h light/dark cycle. Oocytes were obtained from five-year-old frogs anesthetized with 1.7 mg/mL ethyl 3-aminobenzoate methanesulfonate (pH 7.4 with NaHCO3). Stage V-VI oocytes (Dumont’s classification; 1200–1300 μm diameter) were defolliculated with 1.5 mg/mL collagenase Type II (Worthington Biochemical Corp., Lakewood, NJ, USA) at room temperature for 1–2 h in OR-2 solution containing (in mM): 82.5 NaCl, 2 KCl, 1 MgCl2 and 5 HEPES at pH 7.4.
(§2) The human muscle nAChR clones (α1, β1, γ, δ and ε) were purchased from Integrated DNA Technologies (Coralville, IA, USA), whereas the human α3, α9, α10, β2, and β4 clones were purchased from OriGene (Rockville, MD, USA), and all were subsequently inserted into the pT7TS vector. The human α4 and α7 clones were obtained from Prof. Jon Lindstrom (University of Pennsylvania, Philadelphia, PA, USA). Plasmid constructs of the human nAChR clones were linearized for in vitro mRNA synthesis using mMessage mMachine transcription kit (AMBION, Forster City, CA, USA).
(§3) Oocytes were injected with 5 ng cRNA for hα1β1γδ, hα1β1εδ, hα3β2, hα3β4 and hα4β2, 10 ng cRNA for hα7 nAChR, and 35 ng cRNA for hα9α10 nAChR (concentration confirmed spectrophotometrically and by gel electrophoresis). The muscle subunit cRNA ratio was 2:1:1:1 (α1:β1: γ/ε:δ), whereas the heteromeric α and β subunit cRNA ratio was 1:1, injected using glass pipettes pulled from glass capillaries (3-000-203 GX, Drummond Scientific Co., Broomall, PA, USA). Oocytes were incubated at 18 °C in sterile ND96 solution composed of (in mM): 96 NaCl, 2 KCl, 1 CaCl2, 1 MgCl2, and 5 HEPES at pH 7.4, supplemented with 5% fetal bovine serum, 50 mg/L gentamicin (GIBCO, Grand Island, NY, USA) and […] penicillin-streptomycin (GIBCO).
(§4) Electrophysiological recordings were carried out 2–5 days post cRNA microinjection. Two-electrode voltage clamp recordings of X. laevis oocytes expressing human nAChRs were performed at room temperature (21–24 °C) using a GeneClamp 500B amplifier and pClamp9 software interface (Molecular Devices, Sunnyvale, CA, USA) at a holding potential −80 mV. Voltage-recording and current-injecting electrodes were pulled from GC150T-7.5 borosilicate glass (Harvard Apparatus, Holliston, MA) and filled with 3 M KCl, giving resistances of 0.3–1 MΩ. Due to the Ca^2+ permeability of α9α10 nAChRs, 100 µM BAPTA-AM incubation was carried out before recording to prevent the activation of X. laevis oocyte endogenous Ca^2+-activated chloride channels. Oocytes expressing hα9α10 nAChRs were perfused with ND115 solution containing (in mM): 115 NaCl, 2.5 KCl, 1.8 CaCl2, and 10 HEPES at pH 7.4, whereas oocytes expressing all other nAChR subtypes were perfused with ND96 solution using a continuous Legato 270 push/pull syringe pump perfusion system (KD Scientific, Holliston, MA, USA) at a rate of 2 mL/min in an OPC-1 perfusion chamber of <20 µL volume (Automate Scientific, Berkeley, CA, USA).
(§5) Initially, oocytes were briefly washed with ND115/ND96 solution, followed by 3 applications of ACh at a half-maximal excitatory ACh concentration (EC50) for the nAChR subtypes (3 µM for hα4β2, 5 µM for hα1β1γδ and hα1β1εδ, 6 µM for hα3β2 and hα9α10, 100 µM for hα7 and 300 µM for hα3β4). Washout with bath solution was performed for 3 min between ACh applications. Oocytes were incubated with compounds for 5 min with the perfusion system turned off, followed by co-application of ACh and compound with flowing bath solution. All compound solutions were prepared in ND115/ND96 + 0.1% bovine serum albumin (BSA). Incubation with 0.1% BSA was performed to ensure that the BSA and the pressure of the perfusion system had no effect on nAChRs. […]

human (h) α1β1εδ nAChR = molecular target: T2, human (h) α1β1εδ nAChR (Homo sapiens, UniProt P02708+P11230+Q04844+Q07001); assay: Two-electrode voltage clamp, inhibition of ACh-evoked currents at hα1β1εδ nAChR in Xenopus oocytes; type: cell-based; conditions: compound 100 µM; currents activated by 5 μM ACh; ratio ACh + compound to ACh alone; mean ± SD, n = 6–11
T2 construct: host or cells: Xenopus laevis oocytes, cRNA injected
Experimental: as §1, §2, §3, §4, §5

human (h) α3β2 nAChR = molecular target: T3, human (h) α3β2 nAChR (Homo sapiens, UniProt P17787+P32297); assay: Two-electrode voltage clamp, inhibition of ACh-evoked currents at hα3β2 nAChR in Xenopus oocytes; type: cell-based; conditions: compound 100 µM; currents activated by 6 μM ACh; ratio ACh + compound to ACh alone; mean ± SD, n = 6–11
T3 construct: host or cells: Xenopus laevis oocytes, cRNA injected
Experimental: as §1, §2, §3, §4, §5

human (h) α3β4 nAChR = molecular target: T4, human (h) α3β4 nAChR (Homo sapiens, UniProt P30926+P32297); assay: Two-electrode voltage clamp, inhibition of ACh-evoked currents at hα3β4 nAChR in Xenopus oocytes; type: cell-based; conditions: compound 100 µM; currents activated by 300 μM ACh; ratio ACh + compound to ACh alone; mean ± SD, n = 6–11
T4 construct: host or cells: Xenopus laevis oocytes, cRNA injected
Experimental: as §1, §2, §3, §4, §5

human (h) α1β1γδ nAChR = molecular target: T5, human (h) α1β1γδ nAChR (Homo sapiens, UniProt P02708+P07510+P11230+Q07001); assay: Two-electrode voltage clamp, inhibition of ACh-evoked currents at hα1β1γδ nAChR in Xenopus oocytes; type: cell-based; conditions: compound 100 µM; currents activated by 5 μM ACh; ratio ACh + compound to ACh alone; mean ± SD, n = 6–11
T5 construct: host or cells: Xenopus laevis oocytes, cRNA injected
Experimental: as §1, §2, §3, §4, §5

human (h) α4β2 nAChR = molecular target: T6, human (h) α4β2 nAChR (Homo sapiens, UniProt P17787+P43681); assay: Two-electrode voltage clamp, inhibition of ACh-evoked currents at hα4β2 nAChR in Xenopus oocytes; type: cell-based; conditions: compound 100 µM; currents activated by 3 μM ACh; ratio ACh + compound to ACh alone; mean ± SD, n = 6–11
T6 construct: Jon Lindstrom; β2: OriGene (clones); host or cells: Xenopus laevis oocytes, cRNA injected
Experimental: as §1, §2, §3, §4, §5

human (h) α9α10 nAChR = molecular target: T7, human (h) α9α10 nAChR (Homo sapiens, UniProt Q9GZZ6+Q9UGM1); assay: Two-electrode voltage clamp, inhibition of ACh-evoked currents at hα9α10 nAChR in Xenopus oocytes; type: cell-based; conditions: compound 100 µM; currents activated by 6 μM ACh; ratio ACh + compound to ACh alone; mean ± SD, n = 6–11
T7 construct: host or cells: Xenopus laevis oocytes, cRNA injected
Experimental: as §1, §2, §3, §4, §5

NF-kB = tested on: NF-kB; parameters: method as in doi:10.1016/j.tet.2012.09.038; conditions: cited from earlier work

T3 sequence (P32297 32-505): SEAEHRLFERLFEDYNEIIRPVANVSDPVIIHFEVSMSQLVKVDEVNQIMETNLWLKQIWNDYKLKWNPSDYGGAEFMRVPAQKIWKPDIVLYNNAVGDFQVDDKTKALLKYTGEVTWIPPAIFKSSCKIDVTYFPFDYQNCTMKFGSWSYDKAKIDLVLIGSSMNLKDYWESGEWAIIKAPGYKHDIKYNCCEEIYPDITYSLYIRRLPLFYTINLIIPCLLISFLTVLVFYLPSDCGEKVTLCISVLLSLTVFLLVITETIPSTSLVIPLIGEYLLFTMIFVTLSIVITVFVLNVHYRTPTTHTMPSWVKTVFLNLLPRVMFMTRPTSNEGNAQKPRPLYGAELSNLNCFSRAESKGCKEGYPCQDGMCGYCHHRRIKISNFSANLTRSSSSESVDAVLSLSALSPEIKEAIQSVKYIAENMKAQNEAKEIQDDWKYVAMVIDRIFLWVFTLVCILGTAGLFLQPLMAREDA
T3 sequence (P17787 26-502): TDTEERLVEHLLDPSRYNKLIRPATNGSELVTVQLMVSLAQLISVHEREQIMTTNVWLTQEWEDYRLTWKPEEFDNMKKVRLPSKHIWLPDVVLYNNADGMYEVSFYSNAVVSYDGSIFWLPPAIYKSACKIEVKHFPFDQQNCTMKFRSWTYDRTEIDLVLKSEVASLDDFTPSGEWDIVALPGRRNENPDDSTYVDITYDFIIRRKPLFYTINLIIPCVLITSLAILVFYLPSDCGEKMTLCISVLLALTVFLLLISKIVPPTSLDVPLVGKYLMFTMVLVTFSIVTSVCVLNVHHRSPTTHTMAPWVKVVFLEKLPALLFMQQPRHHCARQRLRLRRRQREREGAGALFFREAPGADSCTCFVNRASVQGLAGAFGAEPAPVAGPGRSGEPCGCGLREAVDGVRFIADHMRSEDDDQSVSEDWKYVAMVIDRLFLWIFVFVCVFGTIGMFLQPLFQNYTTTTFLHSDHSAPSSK
T2 sequence (P02708 21-457 limits assumed): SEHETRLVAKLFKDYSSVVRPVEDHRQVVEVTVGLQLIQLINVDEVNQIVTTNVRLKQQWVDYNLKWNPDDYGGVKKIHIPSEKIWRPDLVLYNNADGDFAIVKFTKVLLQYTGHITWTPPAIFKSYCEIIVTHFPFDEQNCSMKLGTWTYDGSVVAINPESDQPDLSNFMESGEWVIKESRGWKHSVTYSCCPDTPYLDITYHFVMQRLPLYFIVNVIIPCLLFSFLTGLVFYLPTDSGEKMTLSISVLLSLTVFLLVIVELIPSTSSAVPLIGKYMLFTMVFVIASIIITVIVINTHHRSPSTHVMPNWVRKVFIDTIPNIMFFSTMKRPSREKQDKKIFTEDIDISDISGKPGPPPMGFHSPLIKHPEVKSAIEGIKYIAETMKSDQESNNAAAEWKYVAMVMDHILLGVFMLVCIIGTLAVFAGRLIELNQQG
T2 sequence (P11230 24-501 limits assumed): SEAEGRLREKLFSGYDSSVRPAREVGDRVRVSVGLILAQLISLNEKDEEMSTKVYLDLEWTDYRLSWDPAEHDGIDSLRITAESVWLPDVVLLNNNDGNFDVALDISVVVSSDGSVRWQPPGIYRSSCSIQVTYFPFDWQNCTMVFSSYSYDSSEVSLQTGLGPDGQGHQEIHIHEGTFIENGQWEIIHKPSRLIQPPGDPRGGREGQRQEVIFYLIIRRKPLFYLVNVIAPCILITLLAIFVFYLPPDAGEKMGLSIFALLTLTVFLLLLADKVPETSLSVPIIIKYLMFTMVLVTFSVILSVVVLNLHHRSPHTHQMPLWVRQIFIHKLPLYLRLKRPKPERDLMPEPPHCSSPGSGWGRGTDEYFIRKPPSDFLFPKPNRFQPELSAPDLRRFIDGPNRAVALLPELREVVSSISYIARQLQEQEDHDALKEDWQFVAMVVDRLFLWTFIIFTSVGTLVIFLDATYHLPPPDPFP
T2 sequence (Q04844 21-493 limits assumed): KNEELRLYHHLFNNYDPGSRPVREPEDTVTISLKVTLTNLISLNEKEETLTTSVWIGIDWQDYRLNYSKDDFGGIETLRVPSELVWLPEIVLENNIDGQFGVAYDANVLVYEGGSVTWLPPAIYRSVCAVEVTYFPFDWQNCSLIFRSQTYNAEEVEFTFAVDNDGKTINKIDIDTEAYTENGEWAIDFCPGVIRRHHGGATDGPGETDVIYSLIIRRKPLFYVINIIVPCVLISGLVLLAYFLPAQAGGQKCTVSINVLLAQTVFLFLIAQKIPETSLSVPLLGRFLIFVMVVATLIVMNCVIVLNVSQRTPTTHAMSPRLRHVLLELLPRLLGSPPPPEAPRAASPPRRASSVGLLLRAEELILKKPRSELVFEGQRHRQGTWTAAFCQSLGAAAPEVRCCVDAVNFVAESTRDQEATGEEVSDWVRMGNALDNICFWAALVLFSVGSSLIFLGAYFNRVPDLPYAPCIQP
T2 sequence (Q07001 22-517 limits assumed): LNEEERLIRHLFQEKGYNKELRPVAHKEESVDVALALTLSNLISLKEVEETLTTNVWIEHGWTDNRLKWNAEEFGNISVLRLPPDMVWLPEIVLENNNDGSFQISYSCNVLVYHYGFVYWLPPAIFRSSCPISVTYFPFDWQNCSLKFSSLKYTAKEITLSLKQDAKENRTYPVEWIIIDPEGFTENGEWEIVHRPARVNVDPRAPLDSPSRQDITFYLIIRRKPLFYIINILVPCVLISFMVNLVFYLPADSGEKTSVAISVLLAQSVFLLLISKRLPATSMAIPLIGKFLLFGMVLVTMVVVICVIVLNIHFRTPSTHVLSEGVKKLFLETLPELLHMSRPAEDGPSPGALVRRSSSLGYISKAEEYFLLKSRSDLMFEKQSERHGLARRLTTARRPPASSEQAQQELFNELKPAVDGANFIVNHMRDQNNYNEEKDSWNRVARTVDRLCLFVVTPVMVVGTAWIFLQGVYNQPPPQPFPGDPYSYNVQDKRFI
T6 sequence (P17787 26-502): as the sequence (P17787 26-502) above
T6 sequence (P43681 29-627): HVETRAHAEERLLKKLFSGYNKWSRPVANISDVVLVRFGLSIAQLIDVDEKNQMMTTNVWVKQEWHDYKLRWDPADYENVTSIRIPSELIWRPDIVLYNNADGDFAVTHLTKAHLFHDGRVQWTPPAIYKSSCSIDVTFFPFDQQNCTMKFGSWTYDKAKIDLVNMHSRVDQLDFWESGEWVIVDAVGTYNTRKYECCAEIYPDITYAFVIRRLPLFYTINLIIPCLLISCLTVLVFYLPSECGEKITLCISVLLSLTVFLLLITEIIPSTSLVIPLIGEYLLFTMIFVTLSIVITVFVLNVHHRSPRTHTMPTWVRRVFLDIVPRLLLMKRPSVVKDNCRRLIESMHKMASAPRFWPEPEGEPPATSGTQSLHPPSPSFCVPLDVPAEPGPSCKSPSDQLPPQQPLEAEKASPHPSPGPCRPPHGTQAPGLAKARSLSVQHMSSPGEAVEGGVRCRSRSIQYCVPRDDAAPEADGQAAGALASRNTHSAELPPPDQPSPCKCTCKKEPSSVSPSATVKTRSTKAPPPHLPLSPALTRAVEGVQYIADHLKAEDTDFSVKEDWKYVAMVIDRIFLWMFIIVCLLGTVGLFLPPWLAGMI
T5 sequence (P11230 24-501): as the sequence (P11230 24-501 limits assumed) above
T5 sequence (P07510 23-517): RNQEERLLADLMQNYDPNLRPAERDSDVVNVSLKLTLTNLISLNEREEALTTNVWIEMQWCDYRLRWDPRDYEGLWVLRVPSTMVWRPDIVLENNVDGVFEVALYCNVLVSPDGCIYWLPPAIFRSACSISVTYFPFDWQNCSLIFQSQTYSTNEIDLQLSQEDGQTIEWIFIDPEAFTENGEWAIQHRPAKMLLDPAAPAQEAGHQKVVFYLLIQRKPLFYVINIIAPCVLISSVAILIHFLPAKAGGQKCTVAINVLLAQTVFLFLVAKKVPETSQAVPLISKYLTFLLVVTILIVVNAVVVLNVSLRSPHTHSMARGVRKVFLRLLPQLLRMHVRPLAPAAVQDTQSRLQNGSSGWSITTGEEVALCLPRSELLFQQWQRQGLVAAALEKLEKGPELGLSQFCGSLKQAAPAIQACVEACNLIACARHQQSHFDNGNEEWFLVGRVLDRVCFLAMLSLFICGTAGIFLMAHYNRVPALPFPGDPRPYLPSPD
T5 sequence (P02708 21-457): as the sequence (P02708 21-457 limits assumed) above
T5 sequence (Q07001 22-517): as the sequence (Q07001 22-517 limits assumed) above
T7 sequence (Q9UGM1 26-479 limits assumed): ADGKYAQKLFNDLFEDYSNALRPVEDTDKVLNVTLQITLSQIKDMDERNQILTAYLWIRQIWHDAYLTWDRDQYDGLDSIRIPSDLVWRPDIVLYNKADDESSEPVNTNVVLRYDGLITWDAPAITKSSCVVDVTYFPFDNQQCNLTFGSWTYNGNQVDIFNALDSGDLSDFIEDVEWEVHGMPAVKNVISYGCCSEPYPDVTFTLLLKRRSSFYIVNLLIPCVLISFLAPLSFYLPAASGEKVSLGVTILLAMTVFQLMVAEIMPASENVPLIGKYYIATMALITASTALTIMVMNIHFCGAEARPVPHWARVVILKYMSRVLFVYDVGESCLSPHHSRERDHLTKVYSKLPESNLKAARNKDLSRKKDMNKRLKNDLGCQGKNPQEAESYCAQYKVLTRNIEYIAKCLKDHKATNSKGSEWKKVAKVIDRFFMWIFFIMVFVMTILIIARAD
T7 sequence (Q9GZZ6 25-450): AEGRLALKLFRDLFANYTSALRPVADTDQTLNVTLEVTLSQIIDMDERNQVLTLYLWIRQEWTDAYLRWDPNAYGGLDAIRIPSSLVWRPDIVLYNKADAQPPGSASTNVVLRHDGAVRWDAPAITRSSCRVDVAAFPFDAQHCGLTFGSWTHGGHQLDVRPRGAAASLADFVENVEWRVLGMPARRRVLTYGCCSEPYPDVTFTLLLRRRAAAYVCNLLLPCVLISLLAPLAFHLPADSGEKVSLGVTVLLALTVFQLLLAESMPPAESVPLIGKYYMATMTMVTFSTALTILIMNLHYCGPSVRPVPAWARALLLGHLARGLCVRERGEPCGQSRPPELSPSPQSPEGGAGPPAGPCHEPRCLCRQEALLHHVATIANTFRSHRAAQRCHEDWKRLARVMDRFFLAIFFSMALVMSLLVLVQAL

Row | Compound | IC50 (HL60 cell lines; read-out: IC50, cytotoxicity against HL60 cell lines) [nM] | IC50 (BEL-7047 cell lines) [nM] | Relative current amplitude (h)α7 (human (h) α7 nAChR) | Relative current amplitude (h) α1β1εδ (human (h) α1β1εδ nAChR) | Relative current amplitude (h)α3β2 (human (h) α3β2 nAChR) | Relative current amplitude (h)α3β4 (human (h) α3β4 nAChR) | Relative current amplitude (h)α1β1γδ (human (h) α1β1γδ nAChR) | Relative current amplitude (h)α4β2 (human (h) α4β2 nAChR) | Relative current amplitude (h)α9α10 (human (h) α9α10 nAChR) | NF-kB inhibitory rate (NF-kB) [%] | IC50 (HL60 cell lines; read-out: IC50, cytotoxic against HL60 cell lines) [nM]
1 | C[C@@H]1C=CC(=O)[C@@]2(C)CC[C@@H]3[C@@H]4[C@@](C)(CC[C@@]4(C)CO)C[C@@]132 [conidiogenone C] | 38 | 900 | – | – | – | – | – | – | – | – | –
2 | CC(C)[C@H](NC(=O)[C@H](NC(=O)[C@@H](N)Cc1c[nH]c2ccccc12)C(C)C)C(=O)N[C@H](Cc1ccc(O)cc1)C(=O)O [Compound 3, psegynamide C] (H-W[dV]V[dY]-OH) | – | – | 0.368 ± 0.088 | 0.648 ± 0.067 | 0.451 ± 0.056 | 0.675 ± 0.040 | 0.861 ± 0.084 | 0.793 ± 0.078 | 0.509 ± 0.041 | – | –
3 | CC(=O)c1cc(C)c(O)c(C[C@@]23Cc4c(O)c(C(C)=O)cc(C)c4O[C@]2(O)[C@H](CC(=O)O)OC3=O)c1O [penilactone B] | – | – | – | – | – | – | – | – | – | 40 | –
4 | CC(C)[C@H](NC(=O)[C@H](NC(=O)[C@@H]1Cc2c([nH]c3ccccc23)CN1)C(C)C)C(=O)N[C@H](Cc1ccccc1)C(=O)O [Compound 4, psegynamide D] | – | – | 0.228 ± 0.049 | 0.757 ± 0.065 | 0.924 ± 0.069 | 0.670 ± 0.049 | 0.985 ± 0.019 | 0.972 ± 0.057 | 0.824 ± 0.064 | – | –
5 | COC(=O)[C@@H](Cc1ccccc1)NC(=O)[C@@H](NC(=O)[C@H](NC(=O)[C@@H]1Cc2c([nH]c3ccccc23)CN1)C(C)C)C(C)C [Compound 5, psegynamide E] | – | – | 0.399 ± 0.061 | 0.392 ± 0.069 | 0.656 ± 0.074 | 0.656 ± 0.051 | 0.799 ± 0.063 | 0.837 ± 0.061 | 0.374 ± 0.073 | – | –
6 | trisorbicillone A | – | – | – | – | – | – | – | – | – | – | 3140
